Measured values reported in US8222295B2, “Compositions comprising polyunsaturated fatty acid monoglycerides or derivatives thereof and uses thereof” (Centre de Recherche sur les Biotechnologies Marines, priority 2007, dated 2012).
In brackets after ≈: the same amount, converted by molar mass. Values belong to the compound of their own block, whether it stands above or below them.

How the values were obtained:
[1] = system: PC-3 human prostate cancer cell line; assay: in vitro cell viability assay (SRB) on PC-3; assay type: cell-based
Experimental: (§1) Five consecutive dilutions with a equal volume of DMSO was performed. […] Precipitation occur at high concentration of curcumin. […] Five consecutive dilutions with a equal volume of DMSO was performed. […] The cell viability assay is performed to measure the relative cell viability status of cancer cells upon exposure to test compounds in comparison to a positive control (etoposide) and a negative control (vehicule). Adherent cells growing in 96-well plates are exposed to test compounds for 3 days (72 hours). […] All conditions are tested in triplicate. […] After the incubation time, total protein content is quantified following staining with the anionic dye sulforhodamine B (SRB). The detection of luminescence, emitted by SRB, is completed by a microplate reader. This method of detection is based upon works published by Monks et al., in Journal of the National Cancer Institute vol. 82 no. […] The amount of luminescence is directly proportional to the number of living cells in culture. […] Cells were trypsinized using 0.25% trypsine (w/v)/0.53 mM EDTA solution (Hyclone), counted and plated at densities between 1000 and 3000 cells per well in flat bottom 96-well clear plates (Becton Dickinson) in 100 μl of appropriate culture medium supplemented with fetal bovine serum (Hyclone). […] Absorbance was read at 515 nm using a 96-well plate Multiskan Spectrum luminescence reader (Thermo Electron Corporation). […]

[2] = system: HCT-15 human colon cancer cell line; assay: in vitro cell viability assay (SRB) on HCT-15; assay type: cell-based
Experimental: as §1

[3] = system: A-549 human lung cancer cell line; assay: in vitro cell viability assay (SRB) on A-549; assay type: cell-based
Experimental: as §1

[4] = human, in vivo
Experimental: The volunteer fasted for 12 hours prior to the study. […] Controlled amount of boiled pasta was eaten after the 4 h time point. An initial blood sample (400 μl) was collected using a lancet at a fingertip into heparin tubes followed by samples at 1, 2, 3, 4, 5, 6, 7 and 8 hour after ingestion. Plasma was separated and immediately analysed for fatty acid composition.
The AUC (calculates area under the curve for concentration vs. time data) is calculated using linear trapezoidal rule. […] In this experiment, the doses are the same. […] The relative bioavailability of compound 1 and compound 5 is calculated with the same formula:

[5] = system: human monocyte THP-1 cells; assay: LPS-induced TNF-α release by monocyte cells (ELISA); assay type: cell-based; conditions: 100 ng/ml of LPS, 4 hours, composition 3 10 μg/ml, curcumin 5 μg/ml
Experimental: Composition 3 (comprising compounds 1 and 5) at final concentration of 10 μg/ml, curcumin (5 μg/ml) and a 1:1 mixture of composition 3 ([…]) and curcumin (5 μg/ml) in DMSO (1%) was used for the in vitro assay. Composition 3 prepared according to the same procedure as previously described in Example 2)
The in vitro assay allows evaluation of the potential anti-inflammatory effects of compounds on the induced-release of pro-inflammatory mediator by monocyte cells. Typical human monocyte THP-1 cells, involved in inflammatory processes, are used in this assay. Measurement of pro-inflammatory mediator TNF-α is performed by ELISA (manufactured by R&D Systems) with artificial induction of pro-inflammatory agents by LPS (E. Coli 055:B5) during 4 hours. Known anti-inflammatory agent dexametazone was used as positive control.

SMILES: COc1cc([C@@H]2c3cc4c(cc3[C@@H](O[C@@H]3O[C@@H]5CO[C@@H](C)O[C@H]5[C@H](O)[C@H]3O)[C@H]3COC(=O)[C@H]23)OCO4)cc(OC)c1O [etoposide]
inhibition at 294 µg/mL ([1]; PC-3, positive control at 294 μg/ml, read-out: growth inhibition): 100%
inhibition at 294 µg/mL ([2]; HCT-15, positive control at 294 μg/ml, read-out: growth inhibition): 100%
inhibition at 294 µg/mL ([3]; A549, A-549, positive control at 294 μg/ml, read-out: growth inhibition): 100%

relative bioavailability of compound 1 compared to compound 5 [4]: 2.20
SMILES: CC/C=C\C/C=C\C/C=C\C/C=C\C/C=C\CCCCCC(=O)OCC(O)CO (stereo not drawn) [compound 1]

SMILES: C[C@@H]1C[C@H]2[C@@H]3CCC4=CC(=O)C=C[C@]4(C)[C@@]3(F)[C@@H](O)C[C@]2(C)[C@@]1(O)C(=O)CO [dexametazone]
TNF-α measured [5]: 125 µg/mL

IC50 ([1]; PC-3, 72 hours, SRB, concentration of the tested substance or composition, read-out: 50% growth inhibition concentration): ~75 µg/mL (≈ 204 µM)
IC50 ([2]; HCT-15, 72 hours, SRB, concentration of the tested substance or composition, read-out: 50% growth inhibition concentration): ~100 µg/mL (≈ 271 µM)
IC50 ([3]; A549, A-549, 72 hours, SRB, concentration of the tested substance or composition, read-out: 50% growth inhibition concentration): ~100 µg/mL (≈ 271 µM)
SMILES: COc1cc(/C=C/C(=O)CC(=O)/C=C/c2ccc(O)c(OC)c2)ccc1O [curcumin]
TNF-α measured [5]: 100 µg/mL
